In US20050020576A1, “Kappa agonist compounds and pharmaceutical formulations thereof” (priority 1996, published 2005):
Counter-ions that a name gives are not always drawn. Like-named read-outs stand apart in the source and are kept apart here.

Assays:
[1] = target: cloned human kappa receptor (Homo sapiens, UniProt P41145); assay: biochemical; type: binding
[2] = system: formalin-induced flinching; assay: animal or person; type: in vivo, male Sprague-Dawley rats; conditions: for inhibition in vivo at 0.3 µM: Rattus norvegicus, read-out: Formalin (% A @ 300 nM) i. paw; for Formalin A50 mg/kg s.c.: sc
[3] = read-out: Ki(nM) [3H]-Diprenorphin κ

Chain of cloned human kappa receptor (P41145 whole entry): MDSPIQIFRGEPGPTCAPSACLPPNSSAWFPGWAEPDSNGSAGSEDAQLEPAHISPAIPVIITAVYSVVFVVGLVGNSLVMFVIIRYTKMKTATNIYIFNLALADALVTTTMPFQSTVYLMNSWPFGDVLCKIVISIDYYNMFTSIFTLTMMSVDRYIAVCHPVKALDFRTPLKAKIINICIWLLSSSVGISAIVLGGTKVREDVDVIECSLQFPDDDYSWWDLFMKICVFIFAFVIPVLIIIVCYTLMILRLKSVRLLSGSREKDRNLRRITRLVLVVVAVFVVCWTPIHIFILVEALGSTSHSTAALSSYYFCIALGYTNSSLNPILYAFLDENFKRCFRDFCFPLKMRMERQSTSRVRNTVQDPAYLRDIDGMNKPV

Molecule | Ki ([1]; Ki (nM) [3H]-Diprenorphin κ) | Late Phase Formalin (i. paw), % @ 300 ([2]; rat, in vivo) | Ki ([1]; Ki, nM 3H-Diprenorphin) | further results
COc1cc(CC(=O)N(C)[C@H](CN2CC[C@H](O)C2)c2ccccc2)c(S(=O)(=O)N2CCOCC2)cc1OC [Example 141, 2-[2-N-(Morpholinesulfamoyl)-4,5-dimethoxyphenyl]-N-methyl-N-[(1S)-1-phenyl-2-[1-(3S)-(3-hydroxypyrrolidinyl)ethyl]]acetamide] | 1.3 nM | 98% @ 300 | – | –
COC(=O)N1CCN(C(=O)Cc2ccc(Cl)c(Cl)c2)[C@@H](CN2CCC[C@H]2CO)C1 [Example 1ii, Methyl-4-[(3,4-dichlorophenyl)acetyl]-3-(S)-[(2-(S)-pyrrolidinemethanol)methyl]-1-piperazinecarboxlate hydrochloride] | – | – | 21.5 nM | inhibition in vivo at 0.3 µM [2]: 60%
CN(C(=O)Cc1cc2c(cc1S(=O)(=O)N(C)C)OCO2)[C@H](CN1CCCC1)c1ccccc1 [Example 132, 2-[2-(N-Dimethylsulfamoyl)-4,5-methylenedioxyphenyl]-N-methyl-N-[(1S)-1-phenyl-2-[(1-pyrrolidinyl)ethyl]]acetamide] | 0.25 nM | 100% @ 300 | – | –
CNS(=O)(=O)c1cccc(CC(=O)N(C)[C@H](CN2CCCC2)c2ccccc2)c1OC [Example 3u] | 1 nM | – | – | Late Phase Formalin, % @ 300 ([2]; rat, in vivo): 48% @ 300
COc1cc(CC(=O)N(C)[C@H](CN2CCCC2)c2ccccc2)c(S(=O)(=O)N(C)C)cc1OC [Example 136, 2-[2-(N-Dimethylsulfamoyl)-4,5-dimethoxyphenyl]-N-methyl-N-[(1S)-1-phenyl-2-[(1-pyrrolidinyl)ethyl]]acetamide] | 0.44 nM | 97% @ 300 | – | –
CN(C(=O)Cc1ccccc1NS(C)(=O)=O)[C@H](CN1CC[C@H](O)C1)c1ccccc1 [Example 125, 2-(2-N-Methylsulfonamido-2-aminophenyl)-N-methyl-N-[(1S)-1-phenyl-2-[1-(3S)-(3-hydroxypyrrolidinyl)ethyl]]acetamide] | 5.3 nM | 81% @ 300 | – | –
CN(C(=O)Cc1ccc(Cl)c(Cl)c1)[C@H](CN1CCCC1)c1cccc(NS(N)(=O)=O)c1 (racemic) [Example 3c, 2-(3,4-Dichlorophenyl)-N-methyl-N-[(1R,S)-1-(3-sulfamidophenyl)-2-(1-pyrrolidinyl)ethyl]acetamide hydrochloride] | 0.12 nM | – | – | Late Phase Formalin A50 ([2]; rat, in vivo): 0.27 mg/kg
C=CCN1CCN(C(=O)Cc2ccc(Cl)c(Cl)c2)[C@H](CN2CCCC2)C1 [Example 1ff, 4-Allyl-1-[(3,4-dichlorophenyl)acetyl]-2-(R)-[(1-pyrrolidinyl)methyl]piperazine hydrochloride] | – | – | 0.58 nM | inhibition in vivo at 0.3 µM [2]: 98%
CN(C(=O)Cc1ccc(Cl)c(Cl)c1)[C@H]1c2cc(NC(=O)/C=C\C(=O)O)ccc2CC[C@@H]1N1CCCC1 [II-24] | – | – | – | Ki ([1]; Ki (nM) [3H] Diprenorphin κ): 28 nM; Late Phase Formalin, % @ 300 μg ([2]; rat, in vivo): 69% @ 300 μg
N-[1S. 2S-trans-4-Trifluoromethyl-N-methyl-N-[2-(1-pyrrolidinyl)cyclohexyl]-phenylacetamido]glycine Hydrochloride [Example 4j] | – | – | – | Ki ([1]; read-out: Ki(nM) [3H]-Diprenorphin): 10.3 nM; Formalin (% A @ 300 μg i-paw) ([2]; rat, in vivo): 91% @ 300
COC(=O)N1CCN(C(=O)Cc2ccc(Cl)c(Cl)c2)C(CN2CC[C@H](OC(=O)Cc3ccc(Cl)c(Cl)c3)C2)C1 (mixture of isomers) [Example 1q, Methyl-4-[(3,4-dichlorophenyl)acetyl]-2-(R,S)-[3-(S)-(3′,4′-dichlorophenyl acetate)-1-(pyrrolidinyl)methyl]-1-piperazinecarboxylate hydrochloride] | – | – | 5.2 nM | inhibition in vivo at 0.3 µM [2]: 98%
CN(C(=O)Cc1ccc(O)c(NS(C)(=O)=O)c1)[C@H](CN1CCCC1)c1ccccc1 [Example 124, 2-(3-N-Methylsulfonamido-3-amino-4-hydroxyphenyl)-N-methyl-N-[(1S)-1-phenyl-2-(1-pyrrolidinyl)ethyl]acetamide] | 5.6 nM | 77% @ 300 | – | –
CNS(=O)(=O)c1cc(OC)ccc1CC(=O)N(C)[C@H](CN1CCCC1)c1ccccc1 [Example 145, 2-[2-(N-Methylsulfamoyl)-4-methoxyphenyl]-N-methyl-N-[(1S)-1-phenyl-2-[(1-pyrrolidinyl)ethyl]]acetamide] | – | 83% @ 300 | – | Ki [1, 3]: 20.5 nM
CS(=O)(=O)N1CCN(C(=O)Cc2ccc(Cl)c(Cl)c2)C(CN2CC[C@H](O)C2)C1 (mixture of isomers) [Example 1ll, 4-Methylsulphonyl-1-[(3,4-dichlorophenyl)acetyl]-2-(R,S)-[(3-(S)-hydroxy-1-pyrrolidinyl)methyl]piperazine hydrochloride] | – | – | 2.86 nM | inhibition in vivo at 0.3 µM [2]: 52%
CS(=O)(=O)N1CCN(C(=O)Cc2ccc(C(F)(F)F)cc2)C(CN2CC[C@H](O)C2)C1 (stereo partly drawn) [Example 1nn, 4-Methylsulphonyl-1-[(4-α,α,α-triflouromethylphenyl)acetyl]-2-(R,S)-[(3-(S)-hydroxy-1-pyrrolidinyl)methyl]piperazine hydrochloride] | – | – | 2.33 nM | Formalin A50 mg/kg s.c. ([2]; rat, in vivo): 7.1 mg/kg
CNS(=O)(=O)c1ccccc1CC(=O)N1CCN(C(=O)OC)CC1CN1CCCC1 (racemic) [Example 1e, Methyl-4-[(2-[N-methylamino)sulfamyl]phenyl)acetyl]-3-(R,S)-[(1-pyrrolidinyl)methyl]-1-piperazinecarboxylate hydrochloride] | – | – | 14 nM | inhibition in vivo at 0.3 µM [2]: 55%
CS(=O)(=O)N1CCN(C(=O)Cc2ccc(Cl)c(Cl)c2)C(CN2CC[C@H](OC(=O)Cc3ccc(Cl)c(Cl)c3)C2)C1 (stereo partly drawn) [Example 1kk, 4-Methylsulphonyl-1-[(3,4-dichlorophenyl)acetyl]-2-(R,S)-[3-(S)-(3′,4′dichlorophenyl acetate)-1-(pyrrolidinyl)methyl]piperazine hydrochloride] | – | – | 5.1 nM | inhibition in vivo at 0.3 µM [2]: 52%
CN(C(=O)Cc1ccc(OCc2ccccc2)c(NS(C)(=O)=O)c1)[C@H](CN1CCCC1)c1ccccc1 [Example 123, 2-(3-N-Methylsulfonamido-3-amino-4-benzyloxyphenyl)-N-methyl-N-[(1S)-1-phenyl-2-(1-pyrrolidinyl)ethyl]acetamide] | 23.6 nM | 87% @ 300 | – | –
COC(=O)N1CCN(C(=O)Cc2ccc(C(F)(F)F)cc2[N+](=O)[O-])C(CN2CCC[C@H]2CO)C1 (mixture of isomers) [Example 1m, Methyl-4-[(2-nitro-4-α,α,α-trifluoromethylphenyl)acetyl]-3-(R,S)-[(2-(S)-pyrrolidinemethanol)methyl]-1-piperazinecarboxylate hydrochloride] | – | – | 49.5 nM | Formalin A50 mg/kg s.c. ([2]; rat, in vivo): 1.7 mg/kg
O=C(Cc1ccc(C(F)(F)F)cc1)N1CCN(C(=O)C(F)(F)F)CC1CN1CCCC1 (racemic) [Example 1h, 4-Trifluoroacetyl-1-[(-4-trifluoromethylphenyl)acetyl]-2-(R,S)-(1-pyrrolidinyl)methyl]piperazine hydrochloride] | – | – | 50 nM | inhibition in vivo at 0.3 µM [2]: 100%
CCOP(=O)(Nc1cccc([C@@H](CN2CCCC2)N(C)C(=O)Cc2ccc(Cl)c(Cl)c2)c1)OCC [Example 3g, 2-(3,4-Dichlorophenyl)-N-methyl-N-[(1S)-1-[3-(diethyl Phosphoryl)amino]phenyl)-2-(1-pyrrolidinyl)ethyl]acetamide hydrochloride] | 0.12 nM | – | – | Late Phase Formalin A50 ([2]; rat, in vivo): 4.4 mg/kg
CNS(=O)(=O)c1ccccc1CC(=O)N(C)C(CN1CCCC1)c1ccccc1F (racemic) [Example 147] | 10 nM | 56% @ 300 | – | –
CN(C(=O)Cc1ccc(C(F)(F)F)cc1NS(C)(=O)=O)[C@H](CN1CC[C@H](O)C1)c1ccccc1 [Example 126, 2-(2-N-Methylsulfonamido-2-amino-4-trifluoromethylphenyl)-N-methyl-N-[(1S)-1-phenyl-2-[1-(3S)-(3-hydroxypyrrolidinyl)ethyl]]acetamide] | 0.61 nM | 93% @ 300 | – | –
COc1cc(CC(=O)N(C)[C@H](CN2CCCC2)c2ccccc2)c(S(=O)(=O)N2CCN(C)CC2)cc1OC [Example 138] | – | 80% @ 300 | – | Ki [1, 3]: 1.3 nM
COc1cc(CC(=O)N(C)[C@H](CN2CCCC2)c2ccccc2)c(S(=O)(=O)N2CCCC2)c(OC)c1OC [Example 143, 2-[2-(N-Pyrrolidinesulfamoyl)-3,4,5-trimethoxyphenyl]-N-methyl-N-[(1S)-1-phenyl-2-[(1-pyrrolidinyl)ethyl]]acetamide] | – | 98% @ 300 | – | Ki [1, 3]: 2.1 nM
CS(=O)(=O)O[C@H]1CCN(CC2CN(S(C)(=O)=O)CCN2C(=O)Cc2ccc(Cl)c(Cl)c2)C1 (stereo partly drawn) [Example 1jj, 4-Methanesulfonyl-1-[(3,4-dichlorophenyl)acetyl]-2-(R,S)-[3-(S)-methanesulfonate-1-(pyrrolidinyl)methyl]piperazine hydrochloride] | – | – | 11.5 nM | inhibition in vivo at 0.3 µM [2]: 49%
N-[1R,2R-trans-4-Trifluoromethyl-N-methyl-N-[2-(1-pyrrolidinyl)cyclohexyl]-phenylacetamido]glycine Hydrochloride [Example 4k] | – | – | – | [3H]-Diprenorphin, % @ 1 μM [1]: 28% @ 1 μM; Formalin (% A @ 300 μg i-paw) ([2]; rat, in vivo): 80% @ 300
CNS(=O)(=O)c1cc(CC(=O)N(C)[C@H](CN2CCCC2)c2ccccc2)ccc1Cl.Cl [Example 3l, 2-[3-(N-Methylsulfamoyl)-4-chlorophenyl]-N-methyl-N-{[1S]-1-phenyl-2-[1-pyrrolidinyl]ethyl}acetamide hydrochloride] | 3.8 nM | – | – | Late Phase Formalin, % @ 300 ([2]; rat, in vivo): 73% @ 300
COc1ccc(CC(=O)N(C)[C@H](CN2CC[C@H](O)C2)c2ccccc2)cc1NS(C)(=O)=O [Example 127, 2-(3-N-Methylsulfonamido-3-amino-4-methoxyphenyl)-N-methyl-N-[(1S)-1-phenyl-2-[1-(3S)-(3-hydroxypyrrolidinyl)ethyl]]acetamide] | 0.82 nM | 94% @ 300 | – | –
